According to patent US9695123B2, “Microbiocides” (Syngenta Participations AG, priority 2013, dated 2017):

Legend:
[1] = system: Blumeria graminis f. Sp. Tritici (Erysiphe graminis f. Sp. Tritici); test: Blumeria graminis f. sp. tritici / wheat / leaf disc preventative (powdery mildew on wheat); format: in vivo; details: foliar, wheat leaf disc cv. Kanzler, inoculated 1 day after application, assessed 6-8 days after application, read-out: disease control
Protocol: Fungicidal Activity Against Blumeria graminis f. Sp. Tritici (Erysiphe graminis f. Sp. Tritici)/Wheat/Leaf Disc Preventative (Powdery Mildew on Wheat)
Wheat leaf segments cv. Kanzler were placed on agar in a multiwell plate (24-well format) and sprayed with the formulated test compound diluted in water. The leaf disks were inoculated by shaking powdery mildew infected plants above the test plates 1 day after application. The inoculated leaf disks were incubated at 20° C. and 60% rh under a light regime of 24 h darkness followed by 12 h light/12 h darkness in a climate chamber and the activity of a compound was assessed as percent disease control compared to untreated when an appropriate level of disease damage appears on untreated check leaf segments (6-8 days after application).

Fusarium culmorum = Fusarium culmorum / liquid culture (root rot); format: cell-based; details: liquid culture (PDB), inhibition of growth photometrically after 48 hrs, read-out: disease control
Protocol: Fungicidal Activity Against Fusarium culmorum/Liquid Culture (Root Rot)
Conidia of the fungus from cryogenic storage were directly mixed into nutrient broth (PDB potato dextrose broth). After placing a (DMSO) solution of the test compounds into a microtiter plate (96-well format) the nutrient broth containing the fungal spores was added. The test plates were incubated at 24 C and the inhibition of growth was determined photometrically after 48 hrs.

[2] = system: Mycosphaerella graminicola (Septoria tritici); test: Mycosphaerella graminicola (Septoria tritici) / liquid culture (Septoria blotch); format: cell-based; details: Zymoseptoria tritici, 96 h, liquid culture (PDB), inhibition of growth photometrically 4-5 days after application, read-out: disease control
Protocol: (§1) Fungicidal Activity Against Mycosphaerella graminicola (Septoria tritici)/Liquid Culture (Septoria Blotch) Conidia of the fungus from cryogenic storage were directly mixed into nutrient broth (PDB potato dextrose broth). After placing a (DMSO) solution of test compound into a microtiter plate (96-well format), the nutrient broth containing the fungal spores was added. The test plates were incubated at 24° C. and the inhibition of growth was determined photometrically 4-5 days after application.

[3] = system: Mycosphaerella arachidis (Cercospora arachidicola); test: Mycosphaerella arachidis (Cercospora arachidicola) / liquid culture (early leaf spot); format: cell-based; details: 96 h, liquid culture (PDB), inhibition of growth photometrically 4-5 days after application, read-out: disease control
Protocol: as §1, with “arachidis (Cercospora arachidicola)/Liquid” for “graminicola (Septoria tritici)/Liquid”, “(Early Leaf Spot)” for “(Septoria Blotch)”

[4] = system: Botryotinia fuckeliana (Botrytis cinerea); test: Botryotinia fuckeliana (Botrytis cinerea) / liquid culture (gray mould); format: cell-based; details: 72 h, liquid culture (Vogels broth), inhibition of growth photometrically 3-4 days after application, read-out: disease control
Protocol: as §1, with “Botryotinia fuckeliana (Botrytis cinerea)/Liquid” for “Mycosphaerella graminicola (Septoria tritici)/Liquid”, “(Gray Mould)” for “(Septoria Blotch)”, “(Vogels” for “(PDB potato dextrose”, “3-4” for “4-5”

Gaeumannomyces graminis = Gaeumannomyces graminis / liquid culture (take-all of cereals); format: cell-based; details: 96 h, liquid culture (PDB), inhibition of growth photometrically 4-5 days after application, read-out: disease control
Protocol: as §1, with “Against Gaeumannomyces graminis/Liquid” for “Against Mycosphaerella graminicola (Septoria tritici)/Liquid”, “Culture (Take-all of Cereals) Mycelial fragments” for “Culture (Septoria Blotch) Conidia”, “spores is” for “spores was”

[5] = system: Puccinia recondita f. Sp. Tritici; test: Puccinia recondita f. sp. tritici / wheat / leaf disc curative (brown rust); format: in vivo; details: foliar, 192 h, applied one day after inoculation, assessed 8 dpi, read-out: disease control
Protocol: Fungicidal Activity Against Puccinia recondita f. Sp. Tritici/Wheat/Leaf Disc Curative (Brown Rust) Wheat leaf segments are placed on agar in multiwell plates (24-well format). The leaf disks are then inoculated with a spore suspension of the fungus. One day after inoculation the test solution is applied. After appropriate incubation the activity of a compound is assessed 8 dpi (days after inoculation) as curative fungicidal activity. Dose range: 200-22 ppm.

[6] = system: Puccinia recondite f. Sp. Tritici; test: Puccinia recondita f. sp. tritici / wheat / leaf disc preventative (brown rust); format: in vivo; details: foliar, wheat leaf disc cv. Kanzler, inoculated 1 day after application, assessed 7-9 days after application, read-out: disease control
Protocol: Fungicidal Activity Against Puccinia recondite f. Sp. Tritici/Wheat/Leaf Disc Preventative (Brown Rust) Wheat leaf segments cv. Kanzler were placed on agar in multiwell plates (24-well format) and sprayed with the formulated test compound diluted in water. The leaf disks were inoculated with a spore suspension of the fungus 1 day after application. The inoculated leaf segments were incubated at 19° C. and 75% rh under a light regime of 12 h light/12 h darkness in a climate cabinet and the activity of a compound was assessed as percent disease control compared to untreated when an appropriate level of disease damage appears in untreated check leaf segments (7-9 days after application).

Compound	pest or weed control at 200 ppm [1] [%]	inhibition of growth at 200 ppm (Fusarium culmorum) [%]	inhibition of growth at 200 ppm [2] [%]	inhibition of growth at 200 ppm [3] [%]	inhibition of growth at 200 ppm [4] [%]	inhibition of growth at 200 ppm (Gaeumannomyces graminis) [%]	pest or weed control at 200 ppm [5] [%]	melting point [°C]	pest or weed control at 200 ppm [6] [%]
Cc1cncc(CC(C#N)c2ccc(C#CC3CC3)cc2)c1 (centres unmarked) [Compound 3]	≥ 80	≥ 80	≥ 80	≥ 80	≥ 80	≥ 80			
CCCC#Cc1ccc(C(O)(Cn2cncn2)C(F)(F)c2ccc(Cl)cn2)cc1 (centres unmarked) [Compound 12]	≥ 80	≥ 80	≥ 80	≥ 80	≥ 80	≥ 80	≥ 80	124 to 128	≥ 80
N#CC(Cc1cncnc1)c1ccc(C#CC2CC2)cc1 (centres unmarked) [Compound 2]	≥ 80	≥ 80	≥ 80	≥ 80		≥ 80	≥ 80		≥ 80
OC(Cn1ccnc1)(c1ccc(C#CC2CC2)cc1)C(F)(F)c1ccccn1 (centres unmarked) [Compound 6]	≥ 80		≥ 80	≥ 80	≥ 80	≥ 80	≥ 80		≥ 80
CC(C)C#Cc1ccc(C(O)(Cn2cncn2)C(F)(F)c2ccc(Cl)cn2)cc1 (centres unmarked) [Compound 11]	≥ 80	≥ 80	≥ 80	≥ 80	≥ 80	≥ 80	≥ 80	128 to 132	≥ 80
OC(Cn1cncn1)(c1ccc(C#CC2CC2)cc1)C(F)(F)c1ccccn1 (centres unmarked) [Compound 7]	≥ 80	≥ 80	≥ 80	≥ 80	≥ 80	≥ 80	≥ 80		≥ 80
OC(Cn1cncn1)(c1ccc(C#CC2CC2)cc1)C(F)(F)c1ccc(Cl)cn1 (centres unmarked) [Compound 13]	≥ 80	≥ 80	≥ 80	≥ 80	≥ 80		≥ 80	88 to 94	≥ 80
OC(Cn1ccnc1)c1ccc(C#CC2CC2)cc1Cl (centres unmarked) [Compound 5]	≥ 80			≥ 80	≥ 80		≥ 80		≥ 80
N#CC(Cc1cccnc1)c1ccc(C#CC2CC2)cc1 (centres unmarked) [Compound 1]	≥ 80	≥ 80	≥ 80	≥ 80	≥ 80	≥ 80	≥ 80		
N#CC(Cc1cccnc1)c1ccc(C#CC2CC2)cc1F (centres unmarked) [Compound 10]	≥ 80	≥ 80	≥ 80	≥ 80	≥ 80	≥ 80	≥ 80		≥ 80
